From ChEMBL document CHEMBL1201862, “PubChem BioAssay data set” (2004) come the findings set out here.

The target in assay [1] is T1, Sentrin-specific protease 8 (Homo sapiens, UniProt Q96LD8).
T1 sequence (Q96LD8 whole entry): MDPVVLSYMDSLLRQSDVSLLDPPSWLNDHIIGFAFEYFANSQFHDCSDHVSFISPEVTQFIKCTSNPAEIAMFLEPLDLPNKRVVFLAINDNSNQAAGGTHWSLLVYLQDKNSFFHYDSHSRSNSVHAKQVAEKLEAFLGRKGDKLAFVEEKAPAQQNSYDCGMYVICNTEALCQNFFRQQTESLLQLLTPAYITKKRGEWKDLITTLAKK
The experiment in a line: inhibition of human SENP8 cleavage activity – biochemical, luminescence, SAR follow-up (AID 504501). It is filed as functional.

Assay [2] can be described thus: viability loss in HeLa cells – cytotoxicity control for MgcRacGAP inhibitor project, dose response (AID 624300). It is filed as functional.
In assay [3] the target is T2, Rac GTPase-activating protein 1 (Homo sapiens, UniProt Q9H0H5).
T2 sequence (Q9H0H5 whole entry): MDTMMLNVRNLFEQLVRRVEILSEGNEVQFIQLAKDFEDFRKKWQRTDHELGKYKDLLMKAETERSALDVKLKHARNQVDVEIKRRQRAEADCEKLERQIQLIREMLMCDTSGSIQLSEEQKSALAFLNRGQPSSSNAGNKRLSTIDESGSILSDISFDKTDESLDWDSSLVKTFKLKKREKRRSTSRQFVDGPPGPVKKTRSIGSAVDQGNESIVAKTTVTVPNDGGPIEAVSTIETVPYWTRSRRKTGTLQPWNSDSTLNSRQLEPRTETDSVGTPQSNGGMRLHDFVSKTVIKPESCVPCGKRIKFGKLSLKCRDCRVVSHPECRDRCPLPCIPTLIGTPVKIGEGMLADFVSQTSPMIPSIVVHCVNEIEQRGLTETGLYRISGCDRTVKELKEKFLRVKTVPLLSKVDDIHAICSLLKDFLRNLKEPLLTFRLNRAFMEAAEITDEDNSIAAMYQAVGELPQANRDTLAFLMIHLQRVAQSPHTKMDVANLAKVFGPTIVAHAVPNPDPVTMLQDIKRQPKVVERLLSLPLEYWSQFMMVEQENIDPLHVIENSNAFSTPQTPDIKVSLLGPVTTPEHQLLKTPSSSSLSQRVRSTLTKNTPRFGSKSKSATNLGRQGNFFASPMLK
Nature of the assay: blockers of MgcRacGAP-driven Rac1 GTP hydrolysis – biochemical, ADP Hunter fluorescence, primary and confirmatory, confirmation (AID 624330). Format: functional.

Assay [4] can be described thus: luciferase reporter signal suppression in cells – H4 neuroglioma cells, luminescence, dose response (AID 1990). Format: functional, cell-based. In general terms: A reporter such as luciferase makes a cellular process visible.
The target in assay [5] is Delta-type opioid receptor (Homo sapiens, UniProt P41143). The experiment in a line: HTS Image-Based Screen for Agonists of the DOR Receptor. [Related pubchem assays (depositor defined):AID1777, AID1786, AID2133]. Format: functional.
Sequence of Delta-type opioid receptor (P41143 whole entry): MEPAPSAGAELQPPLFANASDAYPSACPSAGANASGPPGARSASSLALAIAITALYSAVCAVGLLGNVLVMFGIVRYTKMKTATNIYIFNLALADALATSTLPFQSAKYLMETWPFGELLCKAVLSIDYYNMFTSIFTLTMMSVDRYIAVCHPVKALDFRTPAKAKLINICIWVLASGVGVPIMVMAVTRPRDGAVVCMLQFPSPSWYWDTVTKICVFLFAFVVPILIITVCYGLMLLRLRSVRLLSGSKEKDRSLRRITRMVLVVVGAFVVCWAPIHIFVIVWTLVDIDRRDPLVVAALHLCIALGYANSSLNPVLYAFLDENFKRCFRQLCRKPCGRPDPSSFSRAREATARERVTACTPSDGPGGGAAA
Assay [6] in a line: alpha-synuclein stem-loop luciferase translation blockers – H4 neuroglioma cells, luminescence, confirmation (AID 1988). Format: functional, cell-based.
Assay [7] is described as follows: Trypanosoma cruzi growth suppression in host cells – NIH3T3 host cells, beta-gal luminescence, confirmation (AID 2044).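 Note: intracellular parasites grown in NIH/3T3 mouse fibroblasts as host cells; luminescent beta-galactosidase reporter signal from transgenic T. cruzi replicating inside host cells; inhibitors lower the luminescence signal.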 Format: functional, cell-based.
The target of assay [8] is Kappa-type opioid receptor (Homo sapiens, UniProt P41145). It is filed as functional.
Sequence of Kappa-type opioid receptor (P41145 whole entry): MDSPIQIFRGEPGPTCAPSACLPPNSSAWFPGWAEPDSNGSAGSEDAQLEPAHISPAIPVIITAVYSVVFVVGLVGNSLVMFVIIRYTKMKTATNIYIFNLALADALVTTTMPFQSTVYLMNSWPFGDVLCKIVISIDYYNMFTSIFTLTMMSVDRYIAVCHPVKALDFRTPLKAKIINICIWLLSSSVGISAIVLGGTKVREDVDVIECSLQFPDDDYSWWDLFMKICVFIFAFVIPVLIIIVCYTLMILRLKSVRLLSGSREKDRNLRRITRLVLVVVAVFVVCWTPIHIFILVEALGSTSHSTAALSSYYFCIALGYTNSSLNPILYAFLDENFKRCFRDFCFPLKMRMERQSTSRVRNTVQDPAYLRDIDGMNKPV
A further assay has as its target T3, Protein RecA (Mycobacterium tuberculosis, UniProt P9WHJ3).
T3 sequence (P9WHJ3 whole entry): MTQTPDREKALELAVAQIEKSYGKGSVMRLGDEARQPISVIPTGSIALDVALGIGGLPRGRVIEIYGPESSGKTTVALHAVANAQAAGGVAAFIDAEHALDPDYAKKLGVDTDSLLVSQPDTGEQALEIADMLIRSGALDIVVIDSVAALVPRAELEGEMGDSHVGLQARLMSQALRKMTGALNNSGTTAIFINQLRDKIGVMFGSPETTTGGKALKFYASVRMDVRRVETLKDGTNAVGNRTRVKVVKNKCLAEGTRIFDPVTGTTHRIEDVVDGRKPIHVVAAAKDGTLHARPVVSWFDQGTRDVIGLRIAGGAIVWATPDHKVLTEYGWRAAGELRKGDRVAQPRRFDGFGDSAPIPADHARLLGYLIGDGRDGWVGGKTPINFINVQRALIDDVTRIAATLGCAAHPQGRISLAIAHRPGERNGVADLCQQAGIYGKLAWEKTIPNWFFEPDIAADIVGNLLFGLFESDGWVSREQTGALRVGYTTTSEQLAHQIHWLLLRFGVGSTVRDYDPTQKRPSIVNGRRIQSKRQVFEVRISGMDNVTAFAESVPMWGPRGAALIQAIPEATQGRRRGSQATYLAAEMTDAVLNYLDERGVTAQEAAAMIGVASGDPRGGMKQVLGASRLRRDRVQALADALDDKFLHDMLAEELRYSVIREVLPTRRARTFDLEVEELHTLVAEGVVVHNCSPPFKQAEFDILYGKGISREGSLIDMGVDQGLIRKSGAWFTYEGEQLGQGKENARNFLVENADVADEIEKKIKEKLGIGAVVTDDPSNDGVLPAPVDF
Nature of the assay: Fluorescence Cell-Free Homogeneous Dose Retest to Identify Inhibitors of RecA-Intein Splicing Activity. [Related pubchem assays (depositor defined):AID2097, AID2223, AID489010, AID492950]. Format: functional.

Assay [9] is described as follows: A549 cell cytotoxicity, dose response, cytotoxicity control, plate reader, cherry-pick, antagonist series (AID 743412). It is filed as functional, cell-based.
A short description of assay [10]: blockade of melanocortin 4 receptor signaling – cell-based, plate reader, cherry pick, counter-screen for LGR2 antagonist project, dose response (AID 743444).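 Note: transfected HEK 293 cells stimulated with alpha-MSH peptide; potency of inhibitors of the alpha-MSH evoked signal.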 It is filed as functional. (The purpose of a counterscreen is to sort out artefacts and off-target activity.)

Calls of active or inactive are those of the source.

Broadly, the IC50 is the concentration at which inhibition is half-maximal. What is called CC50 is the concentration at which the toxic effect on the cells reaches its halfway point. On to `Oc1ccc(/C=N\Nc2cc(N3CCOCC3)nc(N3CCOCC3)n2)c(O)c1`, for which the results for the IC50 in assay [1] and in [3] were > 99 µM (inactive) and 57.1 µM (active), respectively. For the same compound, the CC50 in [2] was 100 µM (active).
By EC50 is commonly meant the midpoint of the concentration-response curve. The AC50 is the concentration giving half of the maximal activity seen. As for `COc1cc(NC(=O)Cn2ncc(Cl)c(Cl)c2=O)c(C)cc1[N+](=O)[O-]`, the EC50 in assay [4] is 8.09 µM (active); in assay [5], > 32 µM (inactive); in assay [6] it was > 120 µM (not active); in assay [7] it was 2.39 µM (active); at Protein RecA, 8.7 µM (active). Further, the IC50 in assay [8] was 12.9 µM (active). The AC50 in assay [9] is 5.78 µM (active); in assay [10] it was 29 µM (active).
